Literature values, collected in US20190054044A1, “ORAL DOSAGE FORM OF BOTH CLOMIPHENE ISOMERS AND METHOD OF USING SAME TO TREAT SECONDARY HYPOGONADISM AND MINIMIZE DRUG SIDE EFFECTS IN MEN” (ASPEN PARK PHARMACEUTICALS, INC., priority 2016, published 2019).
Structures can show the parent of a compound that is named as a salt. Values belong to the molecule of their own block, whether it stands above or below them.

Legend:
[1] = baboons
[2] = men
[3] = commercial doses (25 mg PO daily or 50 mg PO every other day)

SMILES: CCN(CC)CCOc1ccc(/C(=C(\Cl)c2ccccc2)c2ccccc2)cc1 (single isomer, unassigned) [cis-isomer of clomiphene]
LH secretion ([1]; range of doses tested): inhibited LH secretion
peripheral testosterone ([1]; range of doses tested): reduced peripheral testosterone towards castrate blood levels

SMILES: CCN(CC)CCOc1ccc(/C(=C(/Cl)c2ccccc2)c2ccccc2)cc1 [ANDROXAL, trans clomiphene citrate]
changes in visual acuity noted as an adverse event (clinical study): 0.2%
fatigue (side effect incidence) (clinical study): 2.8%
headache (side effect incidence) (clinical study): 6.6%
muscle spasms (side effect incidence) (clinical study): 4%
transient blurred vision (side effect incidence) (clinical study): 1.4%
upper respiratory tract infections (side effect incidence) (clinical study, conducted during the cold, flu and allergy season): 11.6%
number of skeletal fractures (treated versus placebo subjects, clinical studies): Increase in number of skeletal fractures

bone mineral density [3]: decrease bone mineral density
risk of fractures [3]: increase the risk of fractures
SMILES: CCN(CC)CCOc1ccc(C(=C(Cl)c2ccccc2)c2ccccc2)cc1 [CLOMID, clomiphene citrate]
safety for long-term management of hypogonadism [2]: safe
T levels ([2]; long-term): raised T levels substantially
osteopenia/osteoporosis ([2]; long-term): improving osteopenia/osteoporosis

SMILES: CCN(CC)CCOc1ccc(/C(=C(/Cl)c2ccccc2)c2ccccc2)cc1 [ENCLOMID]
total serum testosterone [1]: significantly and statistically raised total serum testosterone
